According to ChEMBL document CHEMBL2375284, “Novel hybrids of natural isochroman-4-one bearing N-substituted isopropanolamine as potential antihypertensive candidates” (Bioorg Med Chem, 2013):

Experiments:
[1] = tested on: Rattus norvegicus; assay: Toxicity in rat spontaneous hypertensive model assessed as heart rate at 80 mg/kg, po measured at 1 hr by tail-cuff method (reference value: 403.9 +/- 12.41 bpm); format: organism-based; design: dose 80 mg/kg, route oral; conditions: in vivo
[2] = tested on: Rattus norvegicus; assay: Antihypertensive activity in rat spontaneous hypertensive model assessed as diastolic arterial blood pressure at 80 mg/kg, po measured at 1 hr by tail-cuff method (reference value: 146.2 +/- 13.19 mmHg); format: functional, Artery
[3] = tested on: Rattus norvegicus; assay: Antihypertensive activity in rat spontaneous hypertensive model assessed as diastolic arterial blood pressure at 80 mg/kg, po measured at 6 hrs by tail-cuff method (reference value: 141.2 +/- 7.34 mmHg); format: functional, Artery
[4] = tested on: Rattus norvegicus; assay: Antihypertensive activity in rat spontaneous hypertensive model assessed as diastolic arterial blood pressure at 80 mg/kg, po measured at 8 hrs by tail-cuff method (reference value: 135.3 +/- 8.21 mmHg); format: functional, Artery
[5] = tested on: Rattus norvegicus; assay: Antihypertensive activity in rat spontaneous hypertensive model assessed as mean arterial blood pressure at 80 mg/kg, po measured at 0.5 hrs by tail-cuff method (reference value: 156.2 +/- 7.21 mmHg); format: functional, Artery
[6] = tested on: Rattus norvegicus; assay: Toxicity in rat spontaneous hypertensive model assessed as heart rate at 80 mg/kg, po measured at 6 hrs by tail-cuff method (reference value: 405.1 +/- 24 bpm); format: organism-based; design: dose 80 mg/kg, route oral; conditions: in vivo
[7] = tested on: Rattus norvegicus; assay: Antihypertensive activity in rat spontaneous hypertensive model assessed as mean arterial blood pressure at 80 mg/kg, po measured at 2 hrs by tail-cuff method (reference value: 157.41 +/- 9.62 mmHg); format: functional, Artery
[8] = tested on: Rattus norvegicus; assay: Antihypertensive activity in rat spontaneous hypertensive model assessed as diastolic arterial blood pressure at 80 mg/kg, po measured at 4 hrs by tail-cuff method (reference value: 141.4 +/- 7.11 mmHg); format: functional, Artery
[9] = tested on: Rattus norvegicus; assay: Antihypertensive activity in rat spontaneous hypertensive model assessed as mean arterial blood pressure at 80 mg/kg, po measured at 8 hrs by tail-cuff method (reference value: 155.8 +/- 11.54 mmHg); format: functional, Artery
[10] = tested on: Rattus norvegicus; assay: Toxicity in rat spontaneous hypertensive model assessed as heart rate at 80 mg/kg, po measured at 4 hrs by tail-cuff method (reference value: 403.1 +/- 15.92 bpm); format: organism-based; design: dose 80 mg/kg, route oral; conditions: in vivo
[11] = tested on: Rattus norvegicus; assay: Antihypertensive activity in rat spontaneous hypertensive model assessed as mean arterial blood pressure at 80 mg/kg, po measured at 1 hr by tail-cuff method (reference value: 158.9 +/- 13.65 mmHg); format: functional, Artery
[12] = tested on: Rattus norvegicus; assay: Antihypertensive activity in rat spontaneous hypertensive model assessed as systolic arterial blood pressure at 80 mg/kg, po measured at 4 hrs by tail-cuff method (reference value: 172.9 +/- 10.21 mmHg); format: functional, Artery
[13] = tested on: Rattus norvegicus; assay: Antihypertensive activity in rat spontaneous hypertensive model assessed as mean arterial blood pressure at 80 mg/kg, po measured at 6 hrs by tail-cuff method (reference value: 155.8 +/- 7.97 mmHg); format: functional, Artery
[14] = tested on: Rattus norvegicus; assay: Toxicity in rat spontaneous hypertensive model assessed as heart rate at 80 mg/kg, po measured at 0.5 hrs by tail-cuff method (reference value: 406.5 +/- 13.15 bpm); format: organism-based; design: dose 80 mg/kg, route oral; conditions: in vivo
[15] = tested on: Rattus norvegicus; assay: Antihypertensive activity in rat spontaneous hypertensive model assessed as mean arterial blood pressure at 80 mg/kg, po measured at 4 hrs by tail-cuff method (reference value: 154.4 +/- 20.1 mmHg); format: functional, Artery
[16] = tested on: Rattus norvegicus; assay: Antihypertensive activity in rat spontaneous hypertensive model assessed as systolic arterial blood pressure at 80 mg/kg, po measured at 2 hrs by tail-cuff method (reference value: 172.6 +/- 17.3 mmHg); format: functional, Artery
[17] = tested on: Rattus norvegicus; assay: Antihypertensive activity in rat spontaneous hypertensive model assessed as systolic arterial blood pressure at 80 mg/kg, po measured at 1 hr by tail-cuff method (reference value: 181.2 +/- 16.37 mmHg); format: functional, Artery
[18] = tested on: Rattus norvegicus; assay: Antihypertensive activity in rat spontaneous hypertensive model assessed as systolic arterial blood pressure at 80 mg/kg, po measured at 0.5 hrs by tail-cuff method (reference value: 178.5 +/- 10.13 mmHg); format: functional, Artery
[19] = tested on: Rattus norvegicus; assay: Antihypertensive activity in rat spontaneous hypertensive model assessed as diastolic arterial blood pressure at 80 mg/kg, po measured at 2 hrs by tail-cuff method (reference value: 142.9 +/- 18.07 mmHg); format: functional, Artery
[20] = tested on: Rattus norvegicus; assay: Toxicity in rat spontaneous hypertensive model assessed as heart rate at 80 mg/kg, po measured at 2 hrs by tail-cuff method (reference value: 399.5 +/- 19.68 bpm); format: organism-based; design: dose 80 mg/kg, route oral; conditions: in vivo
[21] = tested on: Rattus norvegicus; assay: Antihypertensive activity in rat spontaneous hypertensive model assessed as systolic arterial blood pressure at 80 mg/kg, po measured at 6 hrs by tail-cuff method (reference value: 176.7 +/- 15.21 mmHg); format: functional, Artery
[22] = tested on: Rattus norvegicus; assay: Toxicity in rat spontaneous hypertensive model assessed as heart rate at 80 mg/kg, po measured at 8 hrs by tail-cuff method (reference value: 397.2 +/- 24.87 bpm); format: organism-based; design: dose 80 mg/kg, route oral; conditions: in vivo
[23] = tested on: Rattus norvegicus; assay: Antihypertensive activity in rat spontaneous hypertensive model assessed as diastolic arterial blood pressure at 80 mg/kg, po measured at 0.5 hrs by tail-cuff method (reference value: 138.7 +/- 9.2 mmHg); format: functional, Artery
[24] = tested on: Rattus norvegicus; assay: Antihypertensive activity in rat spontaneous hypertensive model assessed as systolic arterial blood pressure at 80 mg/kg, po measured at 8 hrs by tail-cuff method (reference value: 174 +/- 12.1 mmHg); format: functional, Artery

COc1ccc2c(c1OCC(O)CNC(C)C)COC(C)C2=O (centres undefined)
Activity [1]: 375 bpm | Activity [2]: 114.6 mmHg | Activity [3]: 124.4 mmHg | Activity [4]: 122.9 mmHg | Activity [5]: 144.8 mmHg | Activity [6]: 374.7 bpm | Activity [7]: 129.3 mmHg | Activity [8]: 117.7 mmHg | Activity [9]: 137.4 mmHg | Activity [10]: 373.2 bpm | Activity [11]: 133.1 mmHg | Activity [12]: 170.9 mmHg | Activity [13]: 138.9 mmHg | Activity [14]: 383.4 bpm | Activity [15]: 135.4 mmHg | Activity [16]: 169 mmHg | Activity [17]: 170.1 mmHg | Activity [18]: 175.3 mmHg | Activity [19]: 109.5 mmHg | Activity [20]: 368.8 bpm | Activity [21]: 168 mmHg | Activity [22]: 372.8 bpm | Activity [23]: 129.6 mmHg | Activity [24]: 166.3 mmHg
